Tests used:
ROCK1 = ROCK1 (Homo sapiens (Human), UniProt Q13464); assay: ROCK1 ADP-Glo kinase enzyme inhibition assay; assay type: biochemical; details: read-out: ROCK1 IC50
Method: (§1) We measured ROCK and PKA kinase enzyme activity inhibition by compounds using commercially available ROCK1 (Promega Corporation, cat #V9581), ROCK2 (Promega, cat #V4045), and PKA kinase (Promega, cat #V4247) ADP-Glo™ assay kits. ADP-Glo™ Kinase Assay is a luminescent ADP detection assay that provides a homogeneous method to measure kinase activity by quantifying the amount of ADP produced during a kinase reaction. The assay is performed in two steps. First, after the kinase reaction, an equal volume of ADP-Glo™ Reagent is added to terminate the kinase reaction and deplete the remaining ATP. Second, the Kinase Detection Reagent is added to simultaneously convert ADP to ATP and allow the newly synthesized ATP to be measured using a luciferase/luciferin reaction. The light generated is measured using a luminometer. A complete protocol is included with the kits and is also available at the Promega website. The assay is briefly described below. • 1. Diluted enzyme, substrate, ATP, and compounds (inhibitors) in Kinase Buffer (40 mM Tris, 7.5, 20 mM MgCl2, 0.1 mg/ml BSA, 50 μM DTT). • 2. Added 1 μl of inhibitor, 2 μl of enzyme and 2 μl of substrate/ATP mix to the wells of 384-well low volume nonbinding assay plate A series of three-fold dilution of inhibitor was prepared and assayed for each inhibitor. • 3. Incubated at room temperature for 60 minutes. • 4. Added 5 μl of ADP-Glo™ Reagent. • 5. Incubated at room temperature for 60 minutes. • 6. Added 10 μl of Kinase Detection Reagent • 7. Incubated at room temperature for 30 minutes.
(§2) Recorded luminescence (Integration time 1 second) using a plate-based luminometer.
Calculated Percent Enzyme Activity: First subtract the signal of the negative control (no enzyme and no inhibitor) from each sample's signal. Then use the mean relative light units (RLU) values for the 0% kinase activity (neither inhibitor nor enzyme) and the 100% kinase activity (no compound) to calculate the other percent enzyme activities remaining in the presence of the different dilutions of inhibitor. […]

ROCK2 = ROCK2 (Homo sapiens (Human), UniProt O75116); assay: ROCK2 ADP-Glo kinase enzyme inhibition assay; assay type: biochemical; details: Exp #3; read-out: ROCK2 IC50(Exp #3)
Method: as §1, §2
Calculated Percent Enzyme Activity: First subtract the signal of the negative control (no enzyme and no inhibitor) from each sample's signal. Then use the mean relative light units (RLU) values for the 0% kinase activity (neither inhibitor nor enzyme) and the 100% kinase activity (no compound) to calculate the other percent enzyme activities remaining in the presence of the different dilutions of inhibitor.
Inhibitor stock solutions of 10 mM are made in DMSO and stored at −20° C. Dilutions were made in assay buffer immediately before use.

[1] = Stability in buffer, plasma, and blood (LC-MS/MS); assay type: in vitro ADME, human; design: half-life: dose or concentration left out as unconfirmed
Method: Stability in buffer, plasma, and blood. Study was conducted by Absorption Systems. Studies were carried out in pH 7.4 phosphate buffer, mixed-gender human plasma (Lot #HMN330460), and mixed-gender human whole blood (Lot #HMN 381096). […] The plasma and blood were obtained from BioIVT and collected on sodium heparin. They were adjusted to pH 7.4 prior to initiating the experiments. […] Aliquots of the DMSO solution were dosed into 1 mL of matrix, which had been pre-warmed to 37° C., at a final concentration of […]. The vials were kept in a benchtop Thermomixer® for the duration of the experiment. Aliquots (100 μL) were taken at each time point (0, 15, 30, 60, and 120 minutes) and added to 96-well plates, which had been pre-filled with 300 μL of acetonitrile (ACN). Samples were stored at 4° C. until the end of the experiment. After the final time point was sampled, the plate was mixed and then centrifuged at 3,000 rpm for 10 minutes. Aliquots of the supernatant were removed, diluted 1:1 into distilled water, and analyzed by LC-MS/MS (Table 21). The peak area response ratio to internal standard (PARR) was compared to the PARR at time 0 to determine the percent of test article remaining at each time point. Half-lives were calculated using GraphPad software, fitting to a single-phase exponential decay equation.

Chain of ROCK1 (Q13464 whole entry): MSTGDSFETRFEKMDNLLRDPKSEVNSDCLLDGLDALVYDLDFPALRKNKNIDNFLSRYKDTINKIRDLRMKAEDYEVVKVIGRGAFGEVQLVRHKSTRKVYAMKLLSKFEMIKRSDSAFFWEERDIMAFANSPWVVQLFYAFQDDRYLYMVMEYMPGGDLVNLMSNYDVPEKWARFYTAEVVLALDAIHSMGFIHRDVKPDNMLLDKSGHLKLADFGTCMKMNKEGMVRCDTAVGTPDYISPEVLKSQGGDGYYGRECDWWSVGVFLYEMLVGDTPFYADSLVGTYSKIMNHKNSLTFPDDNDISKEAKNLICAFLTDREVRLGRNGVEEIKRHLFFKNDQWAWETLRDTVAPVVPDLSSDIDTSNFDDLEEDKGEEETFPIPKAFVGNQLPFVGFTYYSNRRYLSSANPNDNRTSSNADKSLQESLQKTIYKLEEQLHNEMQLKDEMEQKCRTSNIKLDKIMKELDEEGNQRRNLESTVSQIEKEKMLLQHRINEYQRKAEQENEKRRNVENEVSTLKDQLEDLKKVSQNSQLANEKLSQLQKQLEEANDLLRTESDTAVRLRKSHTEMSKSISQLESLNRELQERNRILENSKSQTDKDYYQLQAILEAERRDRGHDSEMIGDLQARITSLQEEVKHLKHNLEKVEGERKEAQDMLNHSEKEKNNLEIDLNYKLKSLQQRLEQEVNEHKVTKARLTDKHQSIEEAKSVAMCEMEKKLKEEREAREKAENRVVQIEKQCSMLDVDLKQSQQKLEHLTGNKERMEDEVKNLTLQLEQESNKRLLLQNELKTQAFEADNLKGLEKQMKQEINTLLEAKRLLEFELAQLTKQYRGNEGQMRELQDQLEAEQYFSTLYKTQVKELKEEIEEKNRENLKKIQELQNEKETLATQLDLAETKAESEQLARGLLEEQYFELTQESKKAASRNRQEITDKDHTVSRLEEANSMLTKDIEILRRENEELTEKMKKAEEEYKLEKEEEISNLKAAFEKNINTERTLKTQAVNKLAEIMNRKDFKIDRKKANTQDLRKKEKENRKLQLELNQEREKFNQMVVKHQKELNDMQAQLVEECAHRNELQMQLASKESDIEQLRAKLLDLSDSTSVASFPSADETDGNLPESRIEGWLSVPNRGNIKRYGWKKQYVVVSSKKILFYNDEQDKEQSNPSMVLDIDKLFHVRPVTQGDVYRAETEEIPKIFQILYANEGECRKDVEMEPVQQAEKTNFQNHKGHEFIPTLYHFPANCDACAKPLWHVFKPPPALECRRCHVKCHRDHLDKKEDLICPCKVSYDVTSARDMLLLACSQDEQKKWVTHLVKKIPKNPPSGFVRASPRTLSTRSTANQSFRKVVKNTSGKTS
Chain of ROCK2 (O75116 whole entry): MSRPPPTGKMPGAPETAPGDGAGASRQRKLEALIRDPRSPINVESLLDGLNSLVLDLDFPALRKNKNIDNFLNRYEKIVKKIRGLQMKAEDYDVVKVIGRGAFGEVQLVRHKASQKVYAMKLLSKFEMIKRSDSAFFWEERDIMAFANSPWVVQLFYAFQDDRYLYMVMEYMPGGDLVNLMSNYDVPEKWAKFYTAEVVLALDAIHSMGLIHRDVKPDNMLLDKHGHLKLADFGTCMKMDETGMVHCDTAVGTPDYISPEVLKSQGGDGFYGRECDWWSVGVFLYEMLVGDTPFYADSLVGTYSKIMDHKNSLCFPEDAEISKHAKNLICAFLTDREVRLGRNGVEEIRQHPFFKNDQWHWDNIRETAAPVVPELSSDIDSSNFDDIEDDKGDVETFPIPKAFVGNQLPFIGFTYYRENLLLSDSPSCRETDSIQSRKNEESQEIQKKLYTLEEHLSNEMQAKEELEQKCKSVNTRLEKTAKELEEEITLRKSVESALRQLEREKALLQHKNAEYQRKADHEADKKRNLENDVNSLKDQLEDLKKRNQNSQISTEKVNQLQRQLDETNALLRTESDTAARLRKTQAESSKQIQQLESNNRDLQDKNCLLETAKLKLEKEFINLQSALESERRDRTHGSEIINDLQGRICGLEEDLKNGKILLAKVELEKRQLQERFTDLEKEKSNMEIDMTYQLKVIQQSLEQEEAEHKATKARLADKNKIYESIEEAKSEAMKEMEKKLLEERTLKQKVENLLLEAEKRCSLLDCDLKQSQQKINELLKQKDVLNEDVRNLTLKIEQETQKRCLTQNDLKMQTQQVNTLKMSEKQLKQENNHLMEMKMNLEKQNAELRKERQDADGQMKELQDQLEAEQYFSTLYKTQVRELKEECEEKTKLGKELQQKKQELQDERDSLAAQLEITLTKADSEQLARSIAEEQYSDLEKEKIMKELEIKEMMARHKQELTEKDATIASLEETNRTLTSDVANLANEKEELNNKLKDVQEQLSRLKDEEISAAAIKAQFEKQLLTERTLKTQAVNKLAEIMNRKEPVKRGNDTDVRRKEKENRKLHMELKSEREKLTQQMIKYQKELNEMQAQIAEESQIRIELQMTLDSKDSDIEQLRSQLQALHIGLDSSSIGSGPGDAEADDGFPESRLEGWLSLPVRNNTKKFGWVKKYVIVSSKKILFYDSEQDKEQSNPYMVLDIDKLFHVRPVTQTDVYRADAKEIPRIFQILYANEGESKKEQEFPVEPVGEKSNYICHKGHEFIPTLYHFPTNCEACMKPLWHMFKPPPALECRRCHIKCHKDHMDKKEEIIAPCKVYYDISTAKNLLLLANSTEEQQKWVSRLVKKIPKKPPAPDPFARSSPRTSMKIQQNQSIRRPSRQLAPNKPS

SMILES: Cl.Cl.NCC(C(=O)Nc1ccc2cnccc2c1)c1ccc(B(O)O)cc1 (centres unmarked) [Compound 10•2HCl]
- IC50 (ROCK1): 0.054 µM
- IC50 (ROCK2): 0.028 µM
- Percent Remaining ([1]; Buffer pH 7.4, 37° C., 0 min): 100%
- Percent Remaining ([1]; Buffer pH 7.4, 37° C., 15 min): 102%
- Percent Remaining ([1]; Buffer pH 7.4, 37° C., 30 min): 97%
- Percent Remaining ([1]; Buffer pH 7.4, 37° C., 60 min): 101%
- Percent Remaining ([1]; Buffer pH 7.4, 37° C., 120 min): 93%
- half-life ([1]; both sexes, pH 7.4, human Plasma, 37° C.): > 2 h
- half-life ([1]; both sexes, pH 7.4, human whole Blood, 37° C.): > 2 h
- Percent Remaining ([1]; human Plasma, 37° C., 0 min): 100%
- Percent Remaining ([1]; human Plasma, 37° C., 15 min): 82%
- Percent Remaining ([1]; human Plasma, 37° C., 30 min): 106%
- Percent Remaining ([1]; human Plasma, 37° C., 60 min): 83%
- Percent Remaining ([1]; human Plasma, 37° C., 120 min): 91%
- Percent Remaining ([1]; human whole Blood, 37° C., 0 min): 100%
- Percent Remaining ([1]; human whole Blood, 37° C., 15 min): 92%
- Percent Remaining ([1]; human whole Blood, 37° C., 30 min): 87%
- Percent Remaining ([1]; human whole Blood, 37° C., 60 min): 100%
- Percent Remaining ([1]; human whole Blood, 37° C., 120 min): 115%
- half-life ([1]; pH 7.4 phosphate buffer, Buffer pH 7.4, 37° C.): > 2 h

From patent publication US12479866B2, “Boron-containing rho kinase inhibitors” (Percipiad, Inc., priority 2019, dated 2025)
